Earlier results on 1 compound are cited in article PMC9888480, “Carboranyl-1,8-naphthalimide intercalators induce lysosomal membrane permeabilization and ferroptosis in cancer cell lines” (Journal of Enzyme Inhibition and Medicinal Chemistry, 2023).

One series concerns the target human topoisomerase IIα. Set-up: method as in PMID 35562989. The conditions noted are these: earlier study of 4-carboranyl-1,8-naphthalimides; read-out: anti-Topo II activity IC50; cited from earlier work.
The subject of another series is ct-DNA. Further details: method as in PMID 33803403. Conditions: unmodified mitonafide and pinafide; cited from earlier work.
The subject of another series is HepG2. Set-up: method as in PMID 31776032. Conditions: footnote of Table 2, reference compounds; cited from earlier work.

By IC50 is commonly meant the concentration that inhibits the measured activity by half. A word on the ΔTm: it is the change in melting temperature against a reference sample. For `CN(C)CCN1C(=O)c2cccc3cc([N+](=O)[O-])cc(c23)C1=O` [mitonafide], the IC50 on human topoisomerase IIα is 5.13 µM; in the series with HepG2 it was below 1000 nM. Further, the ΔTm in the series with ct-DNA is 5.17 °C.
